Data from the supplement of paper PMC13380429.

Legend:
Details in all cases: 72 h
Vero E6 [1] = experiment: drug sensitivity score (DSS) for viability; higher = more toxic; extreme values may be limits of the assay
Calu-3 [2] = experiment: as above
HepG2 [3] = experiment: as above
Caco-2 [4] = experiment: relative viability EC50 (midpoint between 100% and the lowest measured viability); higher = less toxic
HepG2 [5] = experiment: as above
Caco-2 [6] = experiment: drug sensitivity score (DSS) for viability; higher = more toxic; extreme values may be limits of the assay
Caco-2 [7] = experiment: cell viability relative to DMSO; higher = less toxic
HepG2 [8] = experiment: as above
Vero E6 [9] = experiment: relative viability EC50 (midpoint between 100% and the lowest measured viability); higher = less toxic
U2OS [10] = experiment: drug sensitivity score (DSS) for viability; higher = more toxic; extreme values may be limits of the assay
Vero E6 [11] = experiment: cell viability relative to DMSO; higher = less toxic
U2OS [12] = experiment: as above
Calu-3 [13] = experiment: as above
Calu-3 [14] = experiment: relative viability EC50 (midpoint between 100% and the lowest measured viability); higher = less toxic

## CC(C)(S)C(=O)N[C@@H](CS)C(=O)O [bucillamine]
Vero E6 [1]
  drug sensitivity score: 0
Calu-3 [2]
  drug sensitivity score: 0
HepG2 [3]
  drug sensitivity score: 0

## O=C(O)Cc1cc2ccccc2nc1C(=O)O [CCMQ]
Caco-2 [4]
  relative viability EC50: > 10 µM
HepG2 [5]
  relative viability EC50: > 10 µM
Caco-2 [6]
  drug sensitivity score: 0
HepG2 [3]
  drug sensitivity score: 0
Caco-2 [7]; 1 nM
  cell viability: 106%
Caco-2 [7]; 10 nM
  cell viability: 111%
Caco-2 [7]; 100 nM
  cell viability: 103%
Caco-2 [7]; 1000 nM
  cell viability: 98.2%
Caco-2 [7]; 10000 nM
  cell viability: 98.4%
HepG2 [8]; 1 nM
  cell viability: 107%
HepG2 [8]; 10 nM
  cell viability: 110%
HepG2 [8]; 100 nM
  cell viability: 95.6%
HepG2 [8]; 1000 nM
  cell viability: 109%
HepG2 [8]; 10000 nM
  cell viability: 96.9%

## C#C[C@]1(OC(=O)CCCCCC)CC[C@H]2[C@@H]3CCC4=CC(=O)CC[C@@H]4[C@H]3CC[C@@]21C [norethisterone-enanthate]
Vero E6 [9]
  relative viability EC50: > 10 µM
HepG2 [5]
  relative viability EC50: 2.06 µM
Caco-2 [6]
  drug sensitivity score: 2.8
Vero E6 [1]
  drug sensitivity score: 0.6
U2OS [10]
  drug sensitivity score: 1.6
Calu-3 [2]
  drug sensitivity score: 3.2
HepG2 [3]
  drug sensitivity score: 6.4
Caco-2 [7]; 1 nM
  cell viability: 99.9%
Caco-2 [7]; 10 nM
  cell viability: 102%
Caco-2 [7]; 100 nM
  cell viability: 99.8%
Caco-2 [7]; 1000 nM
  cell viability: 95.8%
Caco-2 [7]; 10000 nM
  cell viability: 58.5%
Vero E6 [11]; 1 nM
  cell viability: 96.6%
Vero E6 [11]; 10 nM
  cell viability: 97.1%
Vero E6 [11]; 100 nM
  cell viability: 98.8%
Vero E6 [11]; 1000 nM
  cell viability: 94.5%
Vero E6 [11]; 10000 nM
  cell viability: 84.2%
U2OS [12]; 1 nM
  cell viability: 98.5%
U2OS [12]; 10 nM
  cell viability: 100%
U2OS [12]; 100 nM
  cell viability: 100%
U2OS [12]; 1000 nM
  cell viability: 98.8%
U2OS [12]; 10000 nM
  cell viability: 68.1%
Calu-3 [13]; 1 nM
  cell viability: 100%
Calu-3 [13]; 10 nM
  cell viability: 104%
Calu-3 [13]; 100 nM
  cell viability: 90%
Calu-3 [13]; 1000 nM
  cell viability: 94.1%
Calu-3 [13]; 10000 nM
  cell viability: 57.1%
HepG2 [8]; 1 nM
  cell viability: 95.9%
HepG2 [8]; 10 nM
  cell viability: 95.7%
HepG2 [8]; 100 nM
  cell viability: 96.9%
HepG2 [8]; 1000 nM
  cell viability: 88.8%
HepG2 [8]; 10000 nM
  cell viability: 19.2%

## C=CCN1CCc2nc(N)sc2CC1 [talipexole]
Caco-2 [4]
  relative viability EC50: > 10 µM
Vero E6 [9]
  relative viability EC50: > 10 µM
Caco-2 [6]
  drug sensitivity score: 0
Vero E6 [1]
  drug sensitivity score: 0
Caco-2 [7]; 1 nM
  cell viability: 102%
Caco-2 [7]; 10 nM
  cell viability: 104%
Caco-2 [7]; 100 nM
  cell viability: 99.2%
Caco-2 [7]; 1000 nM
  cell viability: 106%
Caco-2 [7]; 10000 nM
  cell viability: 102%
Vero E6 [11]; 1 nM
  cell viability: 103%
Vero E6 [11]; 10 nM
  cell viability: 107%
Vero E6 [11]; 100 nM
  cell viability: 98.1%
Vero E6 [11]; 1000 nM
  cell viability: 100%
Vero E6 [11]; 10000 nM
  cell viability: 100%

## NS(=O)(=O)c1cc(C(=O)O)c(NCc2ccco2)cc1Cl [furosemide]
Caco-2 [4]
  relative viability EC50: > 10 µM
Vero E6 [9]
  relative viability EC50: > 10 µM
Calu-3 [14]
  relative viability EC50: > 10 µM
HepG2 [5]
  relative viability EC50: > 10 µM
Caco-2 [6]
  drug sensitivity score: 0
Vero E6 [1]
  drug sensitivity score: 0
Calu-3 [2]
  drug sensitivity score: 0
HepG2 [3]
  drug sensitivity score: 0
Caco-2 [7]; 1 nM
  cell viability: 104%
Caco-2 [7]; 10 nM
  cell viability: 95.8%
Caco-2 [7]; 100 nM
  cell viability: 102%
Caco-2 [7]; 1000 nM
  cell viability: 106%
Caco-2 [7]; 10000 nM
  cell viability: 112%
Vero E6 [11]; 1 nM
  cell viability: 99.8%
Vero E6 [11]; 10 nM
  cell viability: 90.5%
Vero E6 [11]; 100 nM
  cell viability: 97.1%
Vero E6 [11]; 1000 nM
  cell viability: 89.6%
Vero E6 [11]; 10000 nM
  cell viability: 105%
Calu-3 [13]; 1 nM
  cell viability: 98.1%
Calu-3 [13]; 10 nM
  cell viability: 95.3%
Calu-3 [13]; 100 nM
  cell viability: 103%
Calu-3 [13]; 1000 nM
  cell viability: 81.5%
Calu-3 [13]; 10000 nM
  cell viability: 104%
HepG2 [8]; 1 nM
  cell viability: 121%
HepG2 [8]; 10 nM
  cell viability: 87.5%
HepG2 [8]; 100 nM
  cell viability: 113%
HepG2 [8]; 1000 nM
  cell viability: 103%
HepG2 [8]; 10000 nM
  cell viability: 120%

## CC(=O)NS(=O)(=O)c1ccc(N)cc1 [sulfacetamide]
Vero E6 [1]
  drug sensitivity score: 0
Calu-3 [2]
  drug sensitivity score: 0
HepG2 [3]
  drug sensitivity score: 0

## COC(=O)[C@H](CC(C)C)NC(=O)c1ccc(NC[C@@H](N)CS)cc1-c1cccc2ccccc12 [GGTI-298]
Caco-2 [4]
  relative viability EC50: > 10 µM
Vero E6 [9]
  relative viability EC50: > 10 µM
Calu-3 [14]
  relative viability EC50: > 10 µM
HepG2 [5]
  relative viability EC50: > 10 µM
Caco-2 [6]
  drug sensitivity score: 1
Vero E6 [1]
  drug sensitivity score: 0.9
U2OS [10]
  drug sensitivity score: 2.9
Calu-3 [2]
  drug sensitivity score: 0
HepG2 [3]
  drug sensitivity score: 0
Caco-2 [7]; 1 nM
  cell viability: 92.3%
Caco-2 [7]; 10 nM
  cell viability: 100%
Caco-2 [7]; 100 nM
  cell viability: 95.2%
Caco-2 [7]; 1000 nM
  cell viability: 98.8%
Caco-2 [7]; 10000 nM
  cell viability: 75.9%
Vero E6 [11]; 1 nM
  cell viability: 105%
Vero E6 [11]; 10 nM
  cell viability: 110%
Vero E6 [11]; 100 nM
  cell viability: 104%
Vero E6 [11]; 1000 nM
  cell viability: 86.3%
Vero E6 [11]; 10000 nM
  cell viability: 92.7%
U2OS [12]; 1 nM
  cell viability: 95.3%
U2OS [12]; 10 nM
  cell viability: 97.4%
U2OS [12]; 100 nM
  cell viability: 92.7%
U2OS [12]; 1000 nM
  cell viability: 94.3%
U2OS [12]; 10000 nM
  cell viability: 60.9%
Calu-3 [13]; 1 nM
  cell viability: 93.1%
Calu-3 [13]; 10 nM
  cell viability: 104%
Calu-3 [13]; 100 nM
  cell viability: 88.8%
Calu-3 [13]; 1000 nM
  cell viability: 100%
Calu-3 [13]; 10000 nM
  cell viability: 93.7%
HepG2 [8]; 1 nM
  cell viability: 90.4%
HepG2 [8]; 10 nM
  cell viability: 106%
HepG2 [8]; 100 nM
  cell viability: 101%
HepG2 [8]; 1000 nM
  cell viability: 93.8%
HepG2 [8]; 10000 nM
  cell viability: 100%

## Cn1cnc(-c2cc3nccc(Oc4ccc(NC(=S)NC(=O)Cc5ccccc5)cc4F)c3s2)c1 [MGCD-265]
Vero E6 [9]
  relative viability EC50: > 10 µM
HepG2 [5]
  relative viability EC50: > 10 µM
Caco-2 [6]
  drug sensitivity score: 3.5
Vero E6 [1]
  drug sensitivity score: 0.6
U2OS [10]
  drug sensitivity score: 2
Calu-3 [2]
  drug sensitivity score: 3.7
HepG2 [3]
  drug sensitivity score: 0.8
Caco-2 [7]; 1 nM
  cell viability: 97%
Caco-2 [7]; 10 nM
  cell viability: 99.8%
Caco-2 [7]; 100 nM
  cell viability: 98.3%
Caco-2 [7]; 1000 nM
  cell viability: 84%
Caco-2 [7]; 10000 nM
  cell viability: 63.6%
Vero E6 [11]; 1 nM
  cell viability: 106%
Vero E6 [11]; 10 nM
  cell viability: 106%
Vero E6 [11]; 100 nM
  cell viability: 103%
Vero E6 [11]; 1000 nM
  cell viability: 104%
Vero E6 [11]; 10000 nM
  cell viability: 77.3%
U2OS [12]; 1 nM
  cell viability: 102%
U2OS [12]; 10 nM
  cell viability: 95.9%
U2OS [12]; 100 nM
  cell viability: 103%
U2OS [12]; 1000 nM
  cell viability: 96.5%
U2OS [12]; 10000 nM
  cell viability: 67.3%
Calu-3 [13]; 1 nM
  cell viability: 96.6%
Calu-3 [13]; 10 nM
  cell viability: 93.1%
Calu-3 [13]; 100 nM
  cell viability: 100%
Calu-3 [13]; 1000 nM
  cell viability: 86.9%
Calu-3 [13]; 10000 nM
  cell viability: 62.3%
HepG2 [8]; 1 nM
  cell viability: 103%
HepG2 [8]; 10 nM
  cell viability: 92.7%
HepG2 [8]; 100 nM
  cell viability: 97.6%
HepG2 [8]; 1000 nM
  cell viability: 97.9%
HepG2 [8]; 10000 nM
  cell viability: 80.6%

## CN1CCc2nc(C(=O)N[C@@H]3C[C@@H](C(=O)N(C)C)CC[C@@H]3NC(=O)C(=O)Nc3ccc(Cl)cn3)sc2C1 [edoxaban]
Caco-2 [4]
  relative viability EC50: > 10 µM
Vero E6 [9]
  relative viability EC50: > 10 µM
Calu-3 [14]
  relative viability EC50: > 10 µM
HepG2 [5]
  relative viability EC50: > 10 µM
Caco-2 [6]
  drug sensitivity score: 0
Vero E6 [1]
  drug sensitivity score: 0
Calu-3 [2]
  drug sensitivity score: 0
HepG2 [3]
  drug sensitivity score: 0
Caco-2 [7]; 1 nM
  cell viability: 92.4%
Caco-2 [7]; 10 nM
  cell viability: 102%
Caco-2 [7]; 100 nM
  cell viability: 94.4%
Caco-2 [7]; 1000 nM
  cell viability: 101%
Caco-2 [7]; 10000 nM
  cell viability: 107%
Vero E6 [11]; 1 nM
  cell viability: 99.5%
Vero E6 [11]; 10 nM
  cell viability: 96%
Vero E6 [11]; 100 nM
  cell viability: 94.8%
Vero E6 [11]; 1000 nM
  cell viability: 92.7%
Vero E6 [11]; 10000 nM
  cell viability: 104%
Calu-3 [13]; 1 nM
  cell viability: 97.6%
Calu-3 [13]; 10 nM
  cell viability: 96.4%
Calu-3 [13]; 100 nM
  cell viability: 92.8%
Calu-3 [13]; 1000 nM
  cell viability: 98.3%
Calu-3 [13]; 10000 nM
  cell viability: 105%
HepG2 [8]; 1 nM
  cell viability: 106%
HepG2 [8]; 10 nM
  cell viability: 94.9%
HepG2 [8]; 100 nM
  cell viability: 106%
HepG2 [8]; 1000 nM
  cell viability: 96.4%
HepG2 [8]; 10000 nM
  cell viability: 101%

## CC(=O)[C@@]1(O)CC[C@H]2[C@@H]3C=C(Cl)C4=CC(=O)[C@@H]5C[C@@H]5[C@]4(C)[C@H]3CC[C@@]21C [CYPROTERONE]
Caco-2 [4]
  relative viability EC50: > 10 µM
Vero E6 [9]
  relative viability EC50: > 10 µM
Calu-3 [14]
  relative viability EC50: > 10 µM
Caco-2 [6]
  drug sensitivity score: 0
Vero E6 [1]
  drug sensitivity score: 0
Calu-3 [2]
  drug sensitivity score: 0
Caco-2 [7]; 1 nM
  cell viability: 106%
Caco-2 [7]; 10 nM
  cell viability: 89.5%
Caco-2 [7]; 100 nM
  cell viability: 112%
Caco-2 [7]; 1000 nM
  cell viability: 102%
Caco-2 [7]; 10000 nM
  cell viability: 95%
Vero E6 [11]; 1 nM
  cell viability: 101%
Vero E6 [11]; 10 nM
  cell viability: 107%
Vero E6 [11]; 100 nM
  cell viability: 99.5%
Vero E6 [11]; 1000 nM
  cell viability: 104%
Vero E6 [11]; 10000 nM
  cell viability: 94.9%
Calu-3 [13]; 1 nM
  cell viability: 99.5%
Calu-3 [13]; 10 nM
  cell viability: 101%
Calu-3 [13]; 100 nM
  cell viability: 103%
Calu-3 [13]; 1000 nM
  cell viability: 86.6%
Calu-3 [13]; 10000 nM
  cell viability: 97.4%
